{"source": "patent EP3219329A1", "about": "“COMBINATIONS OF COPANLISIB” (Bayer Pharma Aktiengesellschaft, priority 2016, dated 2017)", "system": "primary (PDX) human lymphoma model LY2298", "test": "In vivo B cell lymphoma xenograft model (PDX)", "text": "Anti-tumor activity of cpd. B has been analyzed in murine xenograft models. For that purpose tumor fragments from stock mice inoculated with primary human lymphoma tissue were harvested and used for inoculation into female NOD/SCID mice. Each mouse was inoculated subcutaneously at the right flank with primary (PDX) human lymphoma model LY2298 fragment (P7, 2-4 mm in diameter) for tumor development. The treatment was started when the average tumor size reached about 158 mm^3. Mice were allocated randomly into experimental groups according to their tumor sizes, 10 mice per group. The day was denoted as day 0. Treatments were administrated to tumor-bearing mice from day 1 through day 34. Treatment groups were: vehicle control, cpd. B monotherapy, cpd. A monotherapy and combination of cpd. B and cpd A (Table C). Body weights were determined twice per week. Changes in body weight were depicted as treatment related toxicities (>10% stop treatment, >20% termination). Tumor sizes were measured twice weekly in two dimensions using a caliper, and the volume is expressed in mm^3 using the formula: V = 0.5 a x b^2, where a and b are the long and short diameters of the tumor, respectively. The T/C value is an indicator of tumor response to treatment and commonly used as anti-tumor activity endpoint. T and C are the mean tumor volume of the treated and control groups, respectively. Statistical analysis of difference in tumor volume among the groups was evaluated using one-way ANOVA followed by pairweise comparison procedures (Dunett method). P < 0.05 was considered to be statistically significant.\nB in monotherapy and combination therapy with cpd. A during treatment of human LY2298 ABC-DLBCL tumors. Cpd. B has been applied orally upon a dose of 20 mg/kg once daily. Cpd. A was applied intraveneously for 2 days followd by a 5 day treatment break upon a dose of 14 mg/kg. Cpd. […] Cpd. […] TABLE C: Anti-Tumor activity of cpd. B in monotherapy and combination with cpd. A in LY2298 PDX model in NOD/SCID mice.", "data": [{"smiles": "COc1c(OCCCN2CCOCC2)ccc2c1N=C(NC(=O)c1cnc(N)nc1)N1CCN=C21.Cl.Cl", "note": "[cpd. A, 2-amino-N-[7-methoxy-8-(3-morpholin-4-ylpropoxy)-2,3-dihydroimid-azo[1,2-c]quinazolin-5-yl]pyrimidine-5-carboxamide dihydrochloride]", "values": [{"measurement": "Max. body weight loss (%)", "setting": "LY2298 PDX in NOD/SCID mice, cpd. B 20 mg/kg QD p.o., cpd. A 14 mg/kg QD 2on/5off i.v., maximum mean loss as percent of starting weight", "result": -5, "unit": "%"}, {"measurement": "T/C Volume (at day 20)", "setting": "LY2298 PDX in NOD/SCID mice, cpd. B 20 mg/kg QD p.o., cpd. A 14 mg/kg QD 2on/5off i.v., mean tumor volume treated/control, * P<0.05 vs. Vehicle", "result": "0.22*"}, {"measurement": "Response (at termination)", "setting": "LY2298 PDX in NOD/SCID mice, cpd. B 20 mg/kg QD p.o., cpd. A 14 mg/kg QD 2on/5off i.v., number of tumors per response class, 10 mice per group", "result": "7x PD, 1x SD, 1x PR, 1x CR"}, {"measurement": "anti-tumor activity", "setting": "human LY2298 ABC-DLBCL tumors, cpd. B 20 mg/kg once daily orally, cpd. A 14 mg/kg i.v. 2 days on, 5 days break, result in words", "result": "initially a strong anti-tumor activity but after 20 treatment days a clear tumor relapse"}]}]}
